{"source": "patent US20110287080A1", "about": "“COATING II” (SMITH & NEPHEW PLC, priority 2008, published 2011)", "experiment": "Elution of rapamycin from polymer-coated stents into PBS at 37° C., monitored by UV/vis", "assay_type": "physicochemical", "conditions": "stent coating with 25% rapamycin, cumulative absorbance at 279 nm", "description": "Solutions were prepared by dissolving the polymers listed in Table 1 in CHCl3 with 25% (by weight of the solid polymer) rapamycin. After cooling for 5 minutes, the stents were attached to a mandrel and coated on the Sonotek MediCoat Benchtop Coater with a 0.5% w/w solution in CHCl3 of polymer/drug (75/25). The parameters used were: 0.09 ml/min flow rate, 1.0 W ultrasonic power, 16 passes, 40 rpm rotation, 0.13 cm/s horizontal travel and 25 mm from stent to spray head. After coating, the stents were dried under vacuum for 16 hours at 40° C. The stents were released into phosphate buffered saline solution (PBS) at 37° C. and the elution monitored by UV/vis spectroscopy. Fresh buffer solution was added after each reading and the cumulative absorbance at 279 nm was recorded."}
{"smiles": "CCCCCCCCCCCC(=O)O", "note": "[lauric acid]", "values": [{"measurement": "rate of release (elution) of rapamycin", "result": "minimal affect on the rate of release of rapamycin"}]}
